Results on one molecule are retold here after patent US20250066807A1, “CYP72A219 GENES CONFERRING HERBICIDE TOLERANCE” (COLORADO STATE UNIVERSITY RESEARCH FOUNDATION, priority 2021, published 2025).

Structures are written as SMILES. Entries after “also recorded” stand apart in the source; their conditions may differ.

Series [1] has as its system variant allele of this CYP72A219 gene (SEQ ID NO: 3). The series can be described thus: tembotrione metabolism in yeast expressing variant allele of CYP72A219 (a). The following applies: variant allele SEQ ID NO: 3 vector; 150 μL of 1000 μM tembotrione, 24 h, 30 C. Type of series: in vitro ADME, Amaranthus palmeri. As for the experimental part:
(§1) A functional validation of the candidate genes was conducted in a yeast system. In brief, the yeast lines WAT11 and WAT21 express the plant cytochrome P450 reductase genes ATR1 and ATR2, respectively, and have the endogenous yeast cytochrome P450 reductase gene knocked out. The sequences of the three CYP72A219 genes and the CYP81E gene were codon-optimized for expression in yeast and synthesized by Genewiz in vector pUC57. The genes were cloned into yeast expression vector pYES2 with a galactose inducible promoter, a uracil synthesis gene, and an ampicillin resistance gene. The vectors were first transformed into E. coli and selected on ampicillin, followed by sequencing to confirm the correct insertion of the P450 gene sequence. Plasmid was extracted from transformed colonies for transformation into yeast lines WAT11 and WAT21 using a LiAc protocol and plated on glucose-containing media lacking uracil to select for transformed cells. The empty pYES2 vector was included as a negative control, and a vector containing the Nsf1 gene from corn was included as a positive control known to metabolize the HPPD-inhibiting herbicides mesotrione and tembotrione. […] The incubation solution was then centrifuged, and the supernatant was analyzed using LC/MS-MS to measure parent tembotrione and hydroxy tembotrione metabolites. […]

Series [2] concerns CYP81E gene (SEQ ID NO: 9). Kind of series: tembotrione metabolism in yeast expressing CYP81E. Type of series: in vitro ADME, Amaranthus palmeri. The conditions noted are these: CYP81E SEQ ID NO: 9 vector; 150 μL of 1000 μM tembotrione, 24 h, 30 C; FIG. 3F. As for the experimental part:
as §1

In a further series the test system is Palmer amaranth. Kind of series: tembotrione dose response (plant survival) of Palmer amaranth survey populations. Type of series: in vivo, Amaranthus palmeri. The conditions noted are these: eleven survey populations; FIG. 4A. As for the experimental part:
A survey of Palmer amaranth in the US was conducted to identify additional populations resistant to the HPPD inhibiting herbicide tembotrione. A tembotrione dose response was conducted to compare the response of the survey populations to a known sensitive population. The population USA 12001 (the population used for all previous work to identify CYP450 genes) was used as a known resistant reference.

The subject of series [3] is CYP72A219 gene from chromosome 16 (SEQ ID NO: 7). The series can be described thus: tembotrione metabolism in yeast expressing CYP72A219 (c). The conditions noted are these: SEQ ID NO: 7 vector; 150 μL of 1000 μM tembotrione, 24 h, 30 C; FIG. 3D-E. Type of series: in vitro ADME, Amaranthus palmeri. As for the experimental part: as §1
Series [4] relates to yeast lines WAT11 and WAT21. Kind of series: tembotrione metabolism in yeast with empty pYES2 vector (negative control). Type of series: in vitro ADME. The following applies: 150 μL of 1000 μM tembotrione, 24 h, 30 C, FIG. 3A. As for the experimental part: as §1
Series [5] relates to CYP72A219 (a), CYP72A219 (b), CYP72A219 (c) and CYP81E genes. Also noted: species or system Amaranthus palmeri. The conditions noted are these: in vivo.
A further series relates to CYP72A219 (a). Also noted: species or system Amaranthus palmeri. The conditions noted are these: in vivo. As for the experimental part: (§2) Transcript abundance was measured in the 11 resistant survey populations for genes CYP72A219 (a), CYP81E, and a CYP not implicated in herbicide resistance (FIG. 4B-D). Known sensitive populations HPPD S and HPPD S 12021 were included as references, as was known resistant population HPPD R 12001, the population previously characterized for increased expression of CYP72A219 (a) and CYP81E. Relative transcript abundance was quantified using qRT-PCR on cDNA synthesized from RNA extracted from individuals before and 6 h after tembotrione treatment, using normalization genes as previously described.

The test system of a further series is CYP81E. Also noted: species or system Amaranthus palmeri. The following applies: in vivo. As for the experimental part:
as §2

Series [6] deals with a CYP not implicated in herbicide resistance. Also noted: species or system Amaranthus palmeri. The conditions noted are these: in vivo. As for the experimental part: as §2
The test system of series [7] is second CYP72A219 gene from chromosome 4 (SEQ ID NO: 5). Kind of series: tembotrione metabolism in yeast expressing CYP72A219 (b). Type of series: in vitro ADME, Amaranthus palmeri. The conditions noted are these: SEQ ID NO: 5 vector; 150 μL of 1000 μM tembotrione, 24 h, 30 C; FIG. 3D-E. As for the experimental part: as §1
Series [8] deals with CYP72A219 gene from chromosome 4 (MAKER-25717; SEQ ID NO: 1). Kind of series: tembotrione metabolism in yeast expressing CYP72A219 (a). Type of series: in vitro ADME, Amaranthus palmeri. The following applies: CYP72A219 SEQ ID NO: 1 vector; 150 μL of 1000 μM tembotrione, 24 h, 30 C; FIG. 3C. As for the experimental part:
as §1

Series [9] concerns CYP81E and CYP72A219 genes. Also noted: species or system Amaranthus palmeri. The following applies: in vivo.
The test system of series [10] is Palmer amaranth (Amaranthus palmeri). The following applies: in vivo; cited from earlier work.

Consider `CS(=O)(=O)c1ccc(C(=O)C2C(=O)CCCC2=O)c(Cl)c1COCC(F)(F)F` [tembotrione, 2-[2-chloro-4-(methylsulfonyl)-3-[(2,2,2,-tri-fluoroethoxy)methyl]benzoyl]-1,3-cyclo-hexanedione], for which the entries for the “formation of hydroxy-tembotrione metabolite” value in series [1] and in series [8] were “also showed formation of the hydroxy-tembotrione metabolite” and “showed formation of the hydroxy-tembotrione metabolite; also recorded: produced the same hydroxy-tembotrione metabolite as produced in planta”, respectively. Besides, the formation of hydroxy-tembotrione entry in series [2], in series [3] and in series [7] was “did not show formation of hydroxy-tembotrione” each time. Also, the “LD50 (dose of tembotrione required to cause 50% mortality in the population) relative to reference sensitive population” value in the series with Palmer amaranth is “significantly higher LD50”. Besides, the “parent tembotrione and hydroxy tembotrione metabolites in supernatant (LC/MS-MS)” value in series [4] was “only intact tembotrione and no metabolites; also recorded: did not detoxify tembotrione”. In addition, the “expression of all four cytochrome P450 genes following tembotrione treatment” value in [5] is “induced”. In the series with CYP72A219 (a), the “CYP72A219 (a) expression following tembotrione treatment” value is recorded as “increased CYP72A219 (a) expression”. For the same molecule, in the series on CYP81E, the “CYP81E expression constitutively or after tembotrione treatment” value is on record as “No resistant populations from the survey had increased expression of CYP81E”. In addition, in [6], the “expression of CYP unrelated to herbicide resistance before or after tembotrione treatment” value is “had not increased expression in any populations”. The “expression of both genes after treatment with tembotrione (qRT-PCR)” value in [9] is “high expression of both genes”. Further, in series [10], the “detoxification to 4-hydroxy tembotrione metabolite followed by glycosylation” value is listed as “rapidly detoxify”. The “formation of 4-hydroxy tembotrione metabolites in NES” value in series [10] is reported as “at a slower rate than in NER”. For the same molecule, the “rate of hydroxylation, NER compared with NES” value in series [10] is recorded as “more rapidly in NER”.
